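Interpolation was linear, between the two tested concentrations surrounding the appropriate level; five concentrations were tested over 48 hours in 96-well plates. GI50 = concentration required for 50% inhibition of growth. TGI is the concentration that stops growth completely.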
Experiments:
Test in all cases: NCI-60 cell line screen, 48 h
SK-MEL-28 melanoma = tested on: SK-MEL-28 melanoma
SK-MEL-5 melanoma = tested on: SK-MEL-5 melanoma
HCT-15 colon = tested on: HCT-15 colon
SF-268 CNS = tested on: SF-268 CNS
EKVX NSCLC = tested on: EKVX NSCLC
SN12C renal = tested on: SN12C renal
COLO 205 colon = tested on: COLO 205 colon
SF-539 CNS = tested on: SF-539 CNS
MDA-MB-435 = tested on: MDA-MB-435
HL-60(TB) leukemia = tested on: HL-60(TB) leukemia

SMILES | TGI (SK-MEL-28 melanoma) [µM] | TGI (SK-MEL-5 melanoma) [µM] | TGI (HCT-15 colon) [µM] | TGI (SF-268 CNS) [µM] | TGI (EKVX NSCLC) [µM] | TGI (SN12C renal) [µM] | TGI (COLO 205 colon) [µM] | TGI (SF-539 CNS) [µM] | TGI (MDA-MB-435) [µM] | TGI (HL-60(TB) leukemia) [µM] | GI50 (SK-MEL-28 melanoma) [µM] | GI50 (SK-MEL-5 melanoma) [µM] | GI50 (HCT-15 colon) [µM] | GI50 (SF-268 CNS) [µM] | GI50 (EKVX NSCLC) [µM] | GI50 (SN12C renal) [µM] | GI50 (COLO 205 colon) [µM] | GI50 (SF-539 CNS) [µM] | GI50 (MDA-MB-435) [µM] | GI50 (HL-60(TB) leukemia) [µM]
C=CC(C)(C)n1cc(C2=C(O)C(=O)C(c3cn(C(C)(C)C=C)c4ccccc34)=C(O)C2=O)c2ccccc21 | 35 | 4.88 | 5.01 | 8.15 | 14 | 7.03 | 30 | 4.11 | 14.7 | > 31.5 | – | – | – | – | – | – | – | – | – | –
COc1ccc2c(c1)C(=O)/C(=C/c1cccc(OCC(=O)Nc3nc(C)c(C)s3)c1)O2 | 1.72 | 2.81 | 2.98 | 0.0743 | 15.3 | 2.66 | 2.48 | 0.0965 | 13.3 | 0.175 | 0.504 | 0.886 | 1.34 | 0.0281 | 0.677 | 0.171 | 0.752 | 0.052 | 2.95 | 0.0444
FC(F)(F)c1ccc(-c2nn3ncccc3c2-c2ccnc(Nc3ccc4c(c3)OCCO4)n2)cc1 | > 25 | > 25 | > 25 | > 25 | > 25 | > 25 | > 25 | > 25 | > 25 | > 21.8 | > 25 | 6.42 | 8.18 | > 21.3 | 4.02 | 9.77 | 16.6 | > 19.7 | 10.7 | 7.16
Cc1ccc(S(=O)(=O)c2nc(-c3ccccc3)oc2S(C)(=O)=O)cc1 | 3.77 | – | 3.31 | 24.4 | 19.3 | 3.95 | 3.21 | 3.02 | 4.58 | 6.43 | 1.92 | – | 1.7 | 10.6 | 6.08 | 1.92 | 1.7 | 1.56 | 2.11 | 2
CN(C)N1C(=O)SCC(c2ccccc2)(c2ccccc2)C1=O | > 100 | > 100 | > 100 | > 100 | > 100 | > 100 | > 100 | > 100 | > 100 | > 100 | – | – | – | – | – | – | – | – | – | –
COc1ccc(C2=NC(=O)NC2c2ccc(OC)cc2)cc1 (stereo unspecified) | > 100 | 14.2 | > 100 | > 100 | 64.6 | > 100 | 21.3 | 54.8 | 4.56 | 15.6 | 14.9 | 3.29 | 4.78 | 16.5 | 13 | 15.4 | 6.47 | 12.6 | 1.73 | 2.2
CN(Cc1ccc(F)cc1)c1ccc(CO)c(Cl)c1 | > 100 | 22.8 | > 100 | > 100 | > 100 | > 100 | 19.8 | > 100 | > 100 | 54 | 31.3 | 8.6 | 18.3 | 37.8 | 26.9 | 23.2 | 5.86 | 40.7 | 44.7 | 12.5
Cn1c(=O)n(C)c2cc(CNCCNc3ccnc4cc(Cl)ccc34)ccc21 | 30.2 | 30.3 | > 100 | > 100 | – | > 100 | 35.8 | 29.4 | 31.9 | 91.2 | 16 | 16.5 | 31 | 29.4 | – | 45.7 | 17.2 | 14.7 | 15.8 | 25.1
O=C1c2cccnc2-c2nc(-c3cccnc3)cc3c2c1nc1ccccc13 | 59 | 3.46 | 4.58 | > 26.5 | 32.7 | 5.02 | 10.9 | 3.6 | 32 | > 100 | 20.5 | 1.55 | 1.63 | 3.73 | 10.6 | 2.18 | 3.33 | 1.72 | 5.58 | 2.11
C=C1C(=O)O[C@H]2[C@H]1CC/C(Cn1cc(-c3ccc(N)cc3)nn1)=C\CC[C@@]1(C)O[C@@H]21 | 7.54 | 12.7 | 3.37 | 16.3 | 18.5 | 15.1 | 4.05 | 8.75 | 11.5 | 6.43 | 2.71 | 3.47 | 1.42 | 3.7 | 3.89 | 3.48 | 1.79 | 2.77 | 3.01 | 2.23
